# From patent US7390910B2, “Compounds for treating tumors” (priority 2003, dated 2008)
# Marks after values point to notes of the source that are not given here. Where a SMILES comes first, the peptide text is derived from it. [ ]: non-standard residue; d: D form. NMePhe(β,β-Me2) = CN[C@H](C(=O)O)C(C)(C)c1ccccc1; Tle = CC(C)(C)[C@H](N)C(=O)O; NMeV = CN[C@H](C(=O)O)C(C)C
# Tests used:
# [1] = test system: bovine microtubule-associated protein (MAP)-rich tubulin; type: biochemical
# Procedure: Tubulin Polymerization Assays. For in vitro tubulin polymerization assays, bovine microtubule-associated protein (MAP)-rich tubulin, PEM buffer [80 mM Na-PIPES (pH 6.9), 1 mM MgCl2, and 1 mM EGTA], and GTP are purchased from Cytoskeleton (Denver, Colo.). MAP-rich tubulin (final concentration 1.5 mg/ml) is dissolved in cold PEM buffer containing 1 mM GTP (GPEM) and centrifuged at 12,000×g for 10 min at 4° C. The tubulin solution (100 μl/well) is added rapidly to wells of a low-volume, 96-well plate already containing duplicate aliquots (10 μl) of test compounds in GPEM. […] Control wells contained the same final concentration of DMSO (0.3%). After initiation of the reaction, absorbance at 340 nm is measured every minute for 60 min at 24° C. using a SpectraMax Plus plate reader (Molecular Devices, Sunnyvale, Calif.).
# KBV1 = test: cells; type: cell-based; details: for inhibition at 3 µM: KB-V1, 3000 nM; for IC50: 3 days, SRB
# Procedure: (§1) Cell Survival Assay: Standard Pharmacological Test Procedure. […] Compounds are incubated with cells for 3 days.
# KB85 = test: cells; type: cell-based; details: for IC50: 3 days, SRB
# Procedure: as §1
# KB cells = test: cells; type: cell-based; details: for IC50: 3 days, SRB
# Procedure: as §1
Molecule,Tubulin Polym. % inhibition at 0.3 uM [1],inhibition at 3 µM (KBV1; Homo sapiens),IC50 (KB85; 72 h),"IC50 (KB cells; Homo sapiens, KB, 72 h)",Tubulin Polym. % inhibition at 0.5 uM [1],IC50 (KBV1),IC50 (KB85),IC50 (KB cells),"IC50 (KBV1; Homo sapiens, KB-V1, 72 h)",inhibition at 3 µM (KB85; 3000 nM),"inhibition at 3 µM (KB cells; Homo sapiens, 72 h, 3000 nM)"
"CN[C@H](C(=O)N[C@H](C(=O)N(C)[C@H](/C=C(\C)C(=O)N1CC=C[C@H]1C(=O)O)C(C)C)C(C)(C)C)C(C)(C)c1ccccc1 [Example 48, N,β,β-trimethyl-L-phenylalanyl-N^1-{(1S,2E)-4-[(2S)-2-carboxy-2,5-dihydro-1H-pyrrol-1-yl]-1-isopropyl-3-methyl-4-oxobut-2-enyl}-N^1,3-dimethyl-L-valinamide]",91(2) %,15%,184 nM,58 nM,–,–,–,–,–,–,–
"3-hydroxy-N-methyl-L-valyl-N^1-[(1S,2E)-4-ethoxy-1-isopropyl-3-methyl-4-oxo-2-butenyl]-N^1,3-dimethyl-L-valinamide and 3-hydroxy-N,N-dimethyl-L-valyl-N^1-[(1S,2E)-4-ethoxy-1-isopropyl-3-methyl-4-oxo-2-butenyl]-N^1,3-dimethyl-L-valinamide [Example 61]",–,–,–,–,40*** %,> 3000 nM,293 nM,151 nM,–,–,–
"CN[C@H](C(=O)N[C@H](C(=O)N(C)[C@H](/C=C(\C)C(=O)N1CCC[C@H]1C(=O)O)C(C)C)C(C)(C)C)C(C)(C)c1ccc(C)c(C)c1 [Example 18, N,β,β,3,4-Pentamethyl-L-phenylalanyl-N^1-{(1S,2E)-4-[(2S)-2-carboxypyrrolidin-1-yl]-1-isopropyl-3-methyl-4-oxobut-2-enyl}-N^1,3-dimethyl-L-valinamide]",76%,6%,519 nM,74 nM,–,–,–,–,–,–,–
"CN[C@@H](C(=O)N[C@H](C(=O)N(C)[C@H](/C=C(\C)C(=O)O)C(C)C)C(C)(C)C)C1(C)CCCc2ccccc21 (single isomer, unassigned) [Example 60]",94%,–,17 nM,9.1 nM,–,–,–,–,427 nM,–,–
"CN[C@H](C(=O)N[C@H](C(=O)N(C)[C@H](/C=C(\C)C(=O)N1CCN(CCCN(C)C)CC1)C(C)C)C(C)(C)C)C(C)(C)c1ccccc1 [Example 38, N,β,β-trimethyl-L-phenylalanyl-N^1-((1S,2E)-4-{4-[3-(dimethylamino)propyl]piperazin-1-yl}-1-isopropyl-3-methyl-4-oxobut-2-enyl)-N^1,3-dimethyl-L-valinamide]",75%,0%,529 nM,20 nM,–,–,–,–,–,–,–
"CN[C@H](C(=O)N[C@H](C(=O)N(C)[C@H](/C=C(\C)C(=O)N1CCN(Cc2ccccc2)CC1)C(C)C)C(C)(C)C)C(C)(C)c1ccc(C)c(C)c1 [Example 12, N,β,β,3,4-Pentamethyl-L-phenylalanyl-N^1-[(1S,2E)-4-(4-benzylpiperazin-1-yl)-1-isopropyl-3-methyl-4-oxobut-2-enyl]-N^1,3-dimethyl-L-valinamide]",51%,–,65 nM,48 nM,–,–,–,–,1330 nM,–,–
"CN[C@H](C(=O)N[C@H](C(=O)N(C)[C@H](/C=C(\C)[C@@H](O)c1ccccc1)C(C)C)C(C)(C)C)C(C)(C)c1ccccc1 [Example 75, N,β,β-trimethyl-L-phenylalanyl-N-1-[(1S,2E,4R)-4-hydroxy-1-isopropyl-3-methyl-4-phenylbut-2-enyl}-N-1,3-dimethyl-L-valinamide]",–,–,–,–,83*** %,632 nM,186 nM,124 nM,–,–,–
"CN[C@H](C(=O)N[C@H](C(=O)N(C)[C@H](/C=C(\C)P(=O)(O)O)C(C)C)C(C)(C)C)C(C)(C)c1ccccc1 [Example 72, N,β,β-trimethyl-L-phenylalanyl-N^1-[(1S,2E)-1-isopropyl-3-phosphonobut-2-enyl]-N^1,3-dimethyl-L-valinamide]",53%,4%,–,–,–,–,–,–,–,0%,0%
"CN[C@H](C(=O)N[C@H](C(=O)N(C)[C@H](/C=C(\C)C(=O)N1CCC[C@H]1[C@H](OC)[C@@H](C)C(=O)NCCc1ccccc1)C(C)C)C(C)(C)C)C(C)(C)c1ccccc1 [Example 31, N-methyl-3-phenyl-L-valyl-N^1— [(1S,2E)-1-isopropyl-4-((2S)-2-{(1R,2R)-1-methoxy-2-methyl-3-oxo-[(2-phenethyl)amino]propyl}pyrrolidin-1-yl)-3-methyl-4-oxobut-2-enyl]-N^1,3-dimethyl-L-valinamide]",69%,–,–,–,–,191 nM,5.1 nM,0.9 nM,–,–,–
"CN[C@H](C(=O)N[C@H](C(=O)N(C)[C@H](/C=C(\C)C(=O)N1CCC[C@H]1C(=O)OC)C(C)C)C(C)(C)C)C(C)(C)c1cccc(Cl)c1 [Example 23, 3-Chloro-N,β,β-trimethyl-L-phenylalanyl-N^1-{(1S,2E)-4-[(2S)-2-(methoxycarbonyl)pyrrolidin-1-yl]-1-isopropyl-3-methyl-4-oxobut-2-enyl}-N^1,3-dimethyl-L-valinamide]",88%,–,6.2 nM,2.5 nM,–,–,–,–,362 nM,–,–
"CN[C@H](C(=O)N[C@H](C(=O)N(C)[C@H](/C=C(\C)C(O)c1ccccc1)C(C)C)C(C)(C)C)C(C)(C)c1ccccc1 (stereo partly drawn) [Example 74, N,β,β-trimethyl-L-phenylalanyl-N-1-[(1S,2E)-4-hydroxy-1-isopropyl-3-methyl-4-phenylbut-2-enyl}-N-1,3-dimethyl-L-valinamide]",73%,–,–,–,–,466 nM,54 nM,19 nM,–,–,–
CN[C@H](C(=O)N[C@H](C(=O)N(C)[C@H](/C=C(\C)CO)C(C)C)C(C)(C)C)C(C)(C)c1ccccc1 [Example 81],71%,–,–,–,–,1590 nM,447 nM,454 nM,–,–,–
"CN[C@H](C(=O)N[C@H](C(=O)N(C)[C@@H](/C=C(\C)C(=O)OCc1ccc(OCc2ccccc2)cc1)C(C)C)C(C)(C)C)C(C)(C)c1ccccc1 [Example 54, N,β,β-trimethyl-L-phenylalanyl-N^1-((1R,2E)-4-{[4-(benzyloxy)benzyl]oxy}-1-isopropyl-3-methyl-4-oxobut-2-enyl)-N^1,3-dimethyl-L-valinamide]",55%,8%,846 nM,136 nM,–,–,–,–,–,–,–
"CCOP(=O)(OCC)/C(C)=C/[C@H](C(C)C)N(C)C(=O)[C@@H](NC(=O)[C@@H](NC)C(C)(C)c1ccccc1)C(C)(C)C [Example 71, N,β,β-trimethyl-L-phenylalanyl-N^1-[(1S,2E)-3-(diethoxyphosphoryl)-1-isopropyl-but-2-enyl]-N^1,3-dimethyl-L-valinamide]",64%,0%,1750 nM,1300 nM,–,–,–,–,–,–,–
"CN[C@H](C(=O)N[C@H](C(=O)N(C)[C@H](/C=C(\C)C(O)c1nccs1)C(C)C)C(C)(C)C)C(C)(C)c1ccccc1 (stereo partly drawn) [Example 77, N,β,β-trimethyl-L-phenylalanyl-N-1-[(1S,2E)-4-hydroxy-1-isopropyl-3-methyl-4-(1,3-thiazol-2-yl)but-2-enyl]-N-1-,3-dimethyl-L-valinamide]",97%,–,–,–,–,364 nM,19 nM,13 nM,–,–,–
"CN[C@H](C(=O)N[C@H](C(=O)N(C)[C@H](/C=C(\C)C(=O)N1CCC[C@@H]1C(=O)O)C(C)C)C(C)(C)C)C(C)(C)c1ccccc1 [Example 43, N,β,β-trimethyl-L-phenylalanyl-N^1-{(1S,2E)-4-[(2R)-2-carboxypyrrolidin-1-yl]-1-isopropyl-3-methyl-4-oxobut-2-enyl}-N^1,3-dimethyl-L-valinamide]",91%,0%,1580 nM,515 nM,–,–,–,–,–,–,–
"CN[C@H](C(=O)N[C@H](C(=O)N(C)[C@H](/C=C(\C)C(=O)N1CCC[C@H]1C(=O)O)C(C)C)C(C)(C)C)C(C)(C)c1ccccc1 [Example 36, N,β,β-trimethyl-L-phenylalanyl-N^1-{(1S,2E)-4-[(2S)-2-carboxypyrrolidin-1-yl]-1-isopropyl-3-methyl-4-oxobut-2-enyl}-N^1,3-dimethyl-L-valinamide]",97%,0%,205 nM,62 nM,–,–,–,–,–,–,–
"CN[C@H](C(=O)N[C@H](C(=O)N(C)[C@H](C(=O)N1CCC[C@H]1C(=O)OC)C(C)C)C(C)(C)C)C(C)(C)c1ccccc1 [Example 33, Methyl N,β,β-trimethyl-L-phenylalanyl-3-methyl-L-valyl-N-methyl-L-valyl-L-prolinate] (H-[NMePhe(β,β-Me2)][Tle][NMeV]P-OMe)",19%,–,53 nM,18 nM,–,–,–,–,1530 nM,–,–
"CN[C@H](C(=O)N[C@H](C(=O)N(C)[C@H](/C=C(\C)C(=O)N1CCC[C@H]1[C@H](OC)[C@@H](C)C(=O)N[C@@H](Cc1ccccc1)c1nccs1)C(C)C)C(C)(C)C)C(C)(C)C1CCCCC1 [Example 44, 3-cyclohexyl-N-methyl-L-valyl-N^1-{(1S,2E)-1-isopropyl-4-[(2S)-2-((1R,2R)-1methoxy-2-methyl-3-oxo-3-{[(1S)-2-phenyl-1-(1,3-thiazol-2-yl)ethyl]amino}propyl)pyrrolidin-1-yl]-3-methyl-4-oxobut-2-enyl}-N^1,3-dimethyl-L-valinamide]",83%,–,6.2 nM,1.5 nM,–,–,–,–,475 nM,–,–
